One compound from patent publication US7960560B2, “1-(biphenyl-4-ylmethyl)imidazolidine-2,4-dione” (N.V. Organon, priority 2008, dated 2011) can be followed below.

The subject of assay [1] is mechanical allodynia induced by spinal nerve ligation in rats. As to the kind of experiment: The rat (Chung) model of neuropathic pain. Format: in vivo. The following applies: for Withdrawal threshold (g) at peak effect: male Wistar rats, von Frey, vehicle 2.7 ± 0.2. How it is done: The Rat (Chung) Model of Neuropathic Pain
In this model, mechanical allodynia is induced by tight ligation of the left L5 spinal nerve.
Male Wistar rats (228-301 g body weight at time of surgery) were employed in the study. Rats were placed on an elevated (˜40 cm) mesh floor in perspex boxes and the rats' withdrawal threshold to a mechanical stimulus (calibrated von Frey filaments) was measured using filaments of increasing force (2.6-167 mN). The von Frey filaments were applied to the plantar surface of the paw and threshold response determined using the up and down method. A positive response was noted if the paw was sharply withdrawn. A cut-off of 15 g was selected as the upper limit for testing. Following baseline measurements each animal was anaesthetised and the L5 spinal nerve tightly ligated. The animals were allowed to recover from the surgery for a period of at least three days. On the day of drug administration the paw withdrawal thresholds were re-measured (0 min). Immediately after this reading, the rats were dosed orally with vehicle or test compound and readings measured at various time points after compound administration.
Data were expressed as mean±s.e.m. Statistical analysis was performed using the Kruskal-Wallis one-way analysis of variance, a non-parametric statistical test. Each of the treatment groups were then compared against the vehicle group, using the non-parametric Dunn's test.

The test system of assay [2] is mechanical hyperalgesia induced by complete Freund's adjuvant in rats. As to the kind of experiment: Mechanical hyperalgesia in the rat (CFA model of inflammatory pain). Format: in vivo. The following applies: for % Attenuation of hyperalgesia (peak effect): male Wistar rats, 24 h after CFA, reading 3 h post drug, vehicle −0.6 ± 11. As to the method: Mechanical Hyperalgesia in the Rat
In this rat model of inflammatory pain, inflammation is induced by subcutaneous injection of complete Freund's adjuvant (CFA) into the hind paw. The associated mechanical hyperalgesia is quantified by measuring the reduction in paw withdrawal threshold (PWT) to a mechanical compression of the paw.
Experiments were in male Wistar rats weighing (141-175 g). In brief, the rats' paw withdrawal threshold (PWT) to a mechanical compression of the hind paw was measured (baseline reading) using a Randall-Sellito apparatus (Ugo Basile). A cut-off of 20 g was employed to minimise tissue damage to the paw. The animals were then lightly anaesthetised with isoflurane (1-3%) and CFA (0.1 ml.paw^−1) injected subcutaneously (s.c.) into the plantar surface of the left hind paw. The animals were then returned to their home cage and left for the inflammation to develop.
Twenty four h after CFA injection, PWT's were re-measured (0 min) and immediately after this reading, rats were dosed orally with either vehicle or compound 3K (4.5-45 μmol/kg p.o.) Readings were then made at 3 h post drug administration.
Data were plotted as mean±s.e.m. and compared between groups using the Kruskal-Wallis one-way analysis of variance, a non-parametric statistical test.
The percent attenuation of mechanical hyperalgesia is calculated as follows.

Regarding `O=C1CN(Cc2ccc(-c3ccccc3CN3CCOCC3)cc2)C(=O)N1CC1CC1` [Example 3K, 3-Cyclopropylmethyl-1-(2′-(morpholin-4-ylmethyl)biphenyl-4-ylmethyl)imidazolidine-2,4-dione], the “Withdrawal threshold (g) at peak effect” value in assay [1] (4.5 μmol/kg p.o.) came out at 5.8 ± 1.1 g; in assay [1] (15 μmol/kg p.o., p ≦ 0.05), 6.4 ± 1.0 g; in assay [1] (45 μmol/kg p.o., p ≦ 0.05), 7.4 ± 1.3 g. The “Effect on mechanical allodynia” value in assay [1] (4.5-45 μmol/kg p.o., at 120 and 180 min post drug administration) was “attenuated mechanical allodynia in a dose-dependent fashion”. For the same compound, the “Minimum effective dose (MED)” value in assay [1] (p.o., mechanical allodynia, rat) is 15 µmol/kg. Also, the “% Attenuation of hyperalgesia (peak effect)” value is on record as 36 ± 11% in assay [2] (4.5 μmol/kg p.o.) and 100 ± 25 % in assay [2] (45 μmol/kg p.o., p ≦ 0.001). Further, in assay [2] (4.5-45 μmol/kg oral), the “Effect on mechanical hyperalgesia induced by CFA” value is “reversed mechanical hyperalgesia induced by CFA in a dose-dependent fashion”. The MED in assay [2] (p.o., CFA-induced mechanical hyperalgesia, rat) stood at 4.4 µmol/kg.
